Test [1] deals with LEFCH. Kind of test: Postemergence foliar-applied weed control, direct seeded rice (greenhouse). The class given is in vivo, Leptochloa chinensis (L.) Nees. The source says: (§1) Seeds or nutlets of the desired test plant species were planted in a soil matrix prepared by mixing a loam or sandy loam soil (e.g., 28.6 percent silt, 18.8 percent clay, and 52.6 percent sand, with a pH of about 5.8 and an organic matter content of about 1.8 percent) and calcareous grit in an 80 to 20 ratio. The soil matrix was contained in plastic pots with a volume of 1 quart and a surface area of 83.6 square centimeters (cm^2). When required to ensure good germination and healthy plants, a fungicide treatment and/or other chemical or physical treatment was applied. The plants were grown for 8-22 days in a greenhouse with an approximate 14 hr photoperiod which was maintained at about 29° C. during the day and 26° C. during the night. Nutrients (Peters Excel® 15-5-15 5-Ca 2-Mg and iron chelate) were applied in the irrigation solution as needed and water was added on a regular basis. Supplemental lighting was provided with overhead metal halide 1000-Watt lamps as necessary. The plants were employed for testing when they reached the first through fourth true leaf stage.
(§2) Treatments consisted of the acid or esters of 4-amino-3-chloro-5-fluoro-6-(4-chloro-2-fluoro-3-methoxy-phenyl)pyridine-2-carboxylic acid (Compound A), each formulated as an SC (suspension concentrate), and various herbicidal components alone and in combination. Forms of compound A were applied on an acid equivalent basis.
(§3) Other herbicidal components were applied on an active ingredient basis and included the dimethoxy-pyrimidine acid acetolactate synthase (ALS)-inhibiting herbicides bispyribac-sodium formulated as Regiment® 80WP, pyribenzoxim (technical grade material), pyriminobac-methyl formulated as Hie-Clean® 1.2% GR dissolved in water, and pyriftalid (technical grade material).
(§4) Treatment requirements were calculated based upon the rates being tested, the concentration of active ingredient or acid equivalent in the formulation, and a 12 mL application volume at a rate of 187 L/ha.
(§5) For treatments comprised of formulated compounds, measured amounts of compounds were placed individually in 25 mL glass vials and diluted in a volume of 1.25% (v/v) Agri-Dex® crop oil concentrated to obtain 12× stock solutions. […] Application solutions were prepared by adding an appropriate amount of each stock solution (e.g., 1 mL) and diluted to the appropriate final concentrations with the addition of 10 mL of an aqueous mixture of 1.25% (v/v) crop oil concentrate so that the final spray solutions contained 1.25+/−0.005% (v/v) crop oil concentrate.
(§6) For treatments comprised of technical compounds, weighed amounts can be placed individually in 25 mL glass vials and dissolved in a volume of 97:3 v/v acetone/DMSO to obtain 12× stock solutions. […] Application solutions can be prepared by adding an appropriate amount of each stock solution (e.g., 1 mL) and diluted to the appropriate final concentrations with the addition of 10 mL of an aqueous mixture of 1.5% (v/v) crop oil concentrate so that the final spray solutions contain 1.25% (v/v) crop oil concentrate. When technical materials are used, the concentrated stock solutions can be added to the spray solutions so that the final acetone and DMSO concentrations of the application solutions are 16.2% and 0.5%, respectively.
(§7) For treatments comprised of formulated and technical compounds, weighed amounts of the technical materials were placed individually in 25 mL glass vials and dissolved in a volume of 97:3 v/v acetone/DMSO to obtain 12× stock solutions, and measured amounts of the formulated compounds were placed individually in 25 mL glass vials and diluted in a volume of 1.5% (v/v) crop oil concentrate or water to obtain 12× stock solutions. […]

The test system of another test is DIGSA. The test is described as above. The class given is in vivo, Digitaria sanguinalis (L.) Scop.
From the text: as §1, §2, §3, §4, §5
For treatments comprised of technical compounds, weighed amounts can be placed individually in 25 mL glass vials and dissolved in a volume of 97:3 v/v acetone/DMSO to obtain 12× stock solutions. […] Application solutions can be prepared by adding an appropriate amount of each stock solution (e.g., 1 mL) and diluted to the appropriate final concentrations with the addition of 10 mL of an aqueous mixture of 1.5% (v/v) crop oil concentrate so that the final spray solutions contain 1.25% (v/v) crop oil concentrate. […]
as §7

The subject of the next test is IPOHE. The description is as above. Type of test: in vivo, Ipomoea hederacea Jacq.
From the text: as §1, §2, §3, §4, §5, §6, §7

The subject of test [2] is LEFCH. Kind of test: In-water applied weed control, transplanted paddy rice (greenhouse). The class given is in vivo, Leptochloa chinensis (L.) Nees. The note with it: 45 gai/ha. On the procedure:
(§8) Weed seeds or nutlets of the desired test plant species were planted in puddled soil (mud) prepared by mixing a shredded, non-sterilized mineral soil (50.5 percent silt, 25.5 percent clay, and 24 percent sand, with a pH of about 7.6 and an organic matter content of about 2.9 percent) and water at a 1:1 volumetric ratio. The prepared mud was dispensed in 365 mL aliquots into 16-ounce (oz.) non-perforated plastic pots with a surface area of 86.59 square centimeters (cm^2) leaving a headspace of 3 centimeters (cm) in each pot. Mud was allowed to dry overnight prior to planting or transplanting. Rice seeds were planted in Sun Gro MetroMix® 306 planting mixture, which typically has a pH of 6.0 to 6.8 and an organic matter content of about 30 percent, in plastic plug trays. Seedlings at the second or third leaf stage of growth were transplanted into 860 mL of mud contained in 32-oz. non-perforated plastic pots with a surface area of 86.59 cm^2 4 days prior to herbicide application. The paddy was created by filling the headspace of the pots with 2.5 to 3 cm of water. When required to ensure good germination and healthy plants, a fungicide treatment and/or other chemical or physical treatment was applied. The plants were grown for 4-22 days in a greenhouse with an approximate 14 hr photoperiod which was maintained at about 29′C during the day and 26° C. during the night. Nutrients were added as Osmocote® (19:6:12, N:P:K+minor nutrients) at 2 g per 16-oz. pot and 4 g per 32-oz. pot. Water was added on a regular basis to maintain the paddy flood, and supplemental lighting was provided with overhead metal halide 1000-Watt lamps as necessary. The plants were employed for testing when they reached the first through fourth true leaf stage.
(§9) Treatments consisted of the acid or esters of 4-amino-3-chloro-5-fluoro-6-(4-chloro-2-fluoro-3-methoxy-phenyl)pyridine-2-carboxylic acid (compound A) each formulated as an SC and various herbicidal components alone and in combination. Forms of compound A were applied on an acid equivalent basis.
(§10) Other herbicidal components were applied on an active ingredient basis and included the dimethoxy-pyrimidine acid acetolactate synthase (ALS)-inhibiting herbicides bispyribac-sodium formulated as Regiment® 80 WP, pyriminobac-methyl formulated as Hie Clean®, and pyriftalid (technical grade material).
(§11) Treatment requirements for each compound or herbicidal component were calculated based upon the rates being tested, the concentration of active ingredient or acid equivalent in the formulation, an application volume of 2 mL per component per pot, and an application area of 86.59 cm^2 per pot.
(§12) For formulated compounds, a measured amount was placed in an individual 100 or 200 mL glass vial and was dissolved in a volume of 1.25% (v/v) Agri-Dex® crop oil concentrate to obtain application solutions.
(§13) For technical grade compounds, a weighed amount was placed in an individual 100 to 200 mL glass vial and was dissolved in a volume of acetone to obtain concentrated stock solutions. […] The concentrated stock solutions obtained were diluted with an equivalent volume of an aqueous mixture containing 2.5% (v/v) crop oil concentrate so that the final application solutions contained 1.25% (v/v) crop oil concentrate.
(§14) Applications were made by injecting with a pipetter appropriate amounts of the application solutions, individually and sequentially, into the aqueous layer of the paddy.
Control plants were treated in the same manner with the solvent blank. […]

Another test deals with SCPMA. The description is as above. The note with it: for Visual Weed Control (%)-20 DAA SCPMA Obs: 90 gai/ha. Type of test: in vivo, Bolboschoenus maritimus (L.) Palla. As for the experimental part:
as §8, §9, §10, §11, §12, §13, §14
(§15) Control plants were treated in the same manner with the solvent blank. Applications were made so that all treated plant material received the same concentrations of acetone and crop oil concentrate.
(§16) The treated plants and control plants were placed in a greenhouse as described above and water was added as needed to maintain a paddy flood. […]

A further test deals with CYPRO. The test is described as above. Particulars: 22.5 gai/ha. Type of test: in vivo, Cyperus rotundus L. On the procedure: as §8, §9, §10, §11, §12, §13, §14, §15, §16
For another test, the system named is ECHCO. Described as above. The note with it: 22.5 gai/ha. The class given is in vivo, Echinochloa colona (L.) Link. On the procedure: as §8, with “Water was added on a regular basis to maintain the paddy flood, and supplemental lighting was provided with overhead metal halide 1000-Watt lamps as necessary. The plants were employed for testing when they reached the first through fourth true leaf stage.” left out
as §11
For formulated compounds, a measured amount was placed in an individual 100 or 200 mL glass vial and was dissolved in a volume of 1.25% (v/v) Agri-Dex® crop oil concentrate to obtain application solutions. […]

The subject of a further test is FIMMI. The test is described as above. The class given is in vivo, Fimbristylis miliacea (L.) Vahl. On the procedure: as §8, §9, §10, §11, §12, §13, §14, §15, §16

Here are results for one compound from patent US8871680B2, “Herbicidal compositions comprising 4-amino-3-chloro-5-fluoro-6-(4-chloro-2-fluoro-3-methoxyphenyl) pyridine-2-carboxylic acid or a derivative thereof and a di-methoxy-pyrimidine and derivatives thereof” (Dow AgroSciences LLC, priority 2012, dated 2014).

As for `CO/N=C(\C)c1cccc(Oc2nc(OC)cc(OC)n2)c1C(=O)OC` [Pyriminobac-methyl, methyl 2-[(4,6-dimethoxy-2-pyrimidinyl)oxy]-6-[1-(methoxyimino)ethyl]benzoate, reference compound], the “Visual Weed Control (%)-24 DAA LEFCH Obs” value with LEFCH [1] (11.25 gai/ha) and in the test with LEFCH [1] (22.5 gai/ha) was 0% throughout. The “Visual Weed Control (%)-24 DAA DIGSA Obs” value in the test on DIGSA (11.25 gai/ha) and with DIGSA (22.5 gai/ha) was 0% each time. Moreover, the “Visual Weed Control (%)-24 DAA IPOHE Obs” value came out at 10% in the test on IPOHE (11.25 gai/ha); 10% in the test on IPOHE (11.25 gai/ha, Table 4); 10% in the test on IPOHE (22.5 gai/ha); 10% in the test with IPOHE (22.5 gai/ha, Table 4); 20% in the test on IPOHE (90 gai/ha, second part of Table 3). The “Visual Weed Control (%)-21 DAA IPOHE Obs” value in the test on IPOHE (90 gai/ha) worked out at 20%. Moreover, the “Visual Weed Control (%)-21 DAA LEFCH Obs” value in the test on LEFCH [2] came to 80%. The “Visual Weed Control (%)-21 DAA SCPMA Obs” value in the test with SCPMA (22.5 gai/ha, Table 10) turned out to be 0%; in the test on SCPMA (22.5 gai/ha, Table 11) it was 0%; in the test on SCPMA (45 gai/ha, Table 10) it was 0%; in the test on SCPMA (45 gai/ha, Table 11) it was 0%. For the same compound, the “Visual Weed Control (%)-20 DAA SCPMA Obs” value in the test with SCPMA (Table 10) and with SCPMA (Table 11) was 43% in each case. Moreover, in the test on CYPRO, the “Visual Weed Control (%)-21 DAA CYPRO Obs” value is listed as 0%. Moreover, the “Visual Weed Control (%)-21 DAA ECHCO Obs” value with ECHCO turned out to be 40%. The “Visual Weed Control (%)-21 DAA FIMMI Obs” value with FIMMI (22.5 gai/ha) and with FIMMI (45 gai/ha) was 0% each time.
